Among the data in patent US8486456B2, “Itraconazole compositions with improved bioavailability” (Abbott GmbH & Co., KG, priority 2005, dated 2013) are thermal stability and solubility values, retold here.

Series [1] can be described thus: Thermal stability of itraconazole. The format is physicochemical. Particulars: temperatures up to 300° C.
For series [2] the following is noted: aqueous media; cited from earlier work.

On to `CCC(C)n1ncn(-c2ccc(N3CCN(c4ccc(OCC5COC(Cn6cncn6)(c6ccc(Cl)cc6Cl)O5)cc4)CC3)cc2)c1=O` (single isomer, unassigned; (+)) [itraconazole, (+)-cis-4-[4-[4-[4-[[2-(2,4-dichlorophenyl)-2-(1H-1,2,4-triazol-1-yl-methyl)-1,3-dioxolan-4-yl]methoxy]phenyl]-1-piperazinyl]phenyl]-2,4-dihydro-2-(1-methylpropyl)-3H-1,2,4-triazol-3-one], for which the thermal stability entry in series [1] was “thermally very stable”. The solubility entry in series [2] is given as “practically insoluble”.
